From patent publication US9290496B2, “Purine derivatives” (PFIZER INC., priority 2013, dated 2016)
Read-outs that look alike come from different tables or passages of the source.

What was measured:
Assay type in all cases: cell-based
[1] = target: T1, EGFR wildtype, endogenous (A549) (Homo sapiens, UniProt P00533); assay: pEGFR Y1068 ELISA assay, A549 cells; conditions: inhibition of phosphorylation of EGFR at Tyr1068; A549 NSCLC cells; 2 hr compound incubation, then stimulated 10 min with EGF (40 ng/mL)
T1 construct: A549 (EGFR wildtype, endogenous); host or cells: A549 (stimulated with EGF)
Description: Phosphorylation of EGFR at Y1068 was measured by PathScan® Phospho-EGF Receptor (Try1068) Sandwich ELISA kit (#7240, Cell Signaling Technology®, Danvers, Mass.). The PathScan® Phospho-EGF Receptor (Tyr1068) Sandwich ELISA Kit is a solid phase sandwich enzyme-linked immunosorbent assay (ELISA) that detects endogenous levels of phospho-EGF Receptor (Tyr1068) protein. […] All cells were cultured according to ATCC recommendations. A549, NCI-H1975, PC9, and NCI-H3255 cells were grown in RPMI media (Invitrogen, Carlsbad, Calif.) supplemented with 10% FBS (Sigma, St Louis, Mo.), and with 1% Penn/Strep (Invitrogen). PC9-DRH cells were grown in RPMI with 10% FBS and 1 μM dacomitinib.
Cells were plated at 40,000/well in complete culture media (50 μL/well) on the bottom of clear tissue culture treated microtiter plates (#3595, Corning Inc, Corning, N.Y.) and allowed to adhere overnight at 37° C., 5% CO2. The following day, compound dilution plates were prepared in 96 well clear V-bottom 0.5 mL polypropylene block plates (#3956, Corning, Inc). Each compound was prepared as a DMSO stock solution (10 mM). Compounds were tested in duplicate on each plate, with an 11-point serial dilution curve (1:3 dilution). Compound treatment (50 μL) was added from the compound dilution plate to the cell plate. […] Plates were then incubated for 2 hr at 37° C., 5% CO2. For A549 (EGFR wildtype) assay, cells were plated in full-serum (10%) media for 24 hr prior to compound treatment; cells were treated in full serum media as described and then stimulated for 10 min with EGF (40 ng/mL/starvation media, Invitrogen). Immediately prior to the end of the incubation, ice-cold lysis buffer was prepared (1× Cell Lysis Buffer (#9803, Cell Signaling Technology), 1 mM sodium orthovanadate (Na3VO4, #96508, Sigma), 1 mM phenylmethanesulfonyl fluoride (PMSF, 52332, CalBiochem/EMD Chemicals), complete Mini EDTA-free Protease Inhibitor Cocktail Tablet (1 tablet/10 mL, #11836170001, Roche, Indianapolis, Ind.), and PhosSTOP Phosphatase Inhibitor Cocktail Tablet (1 tablet/10 mL, #04906837001, Roche) in pure water. At the end of 2 hr, media was flicked off and cells were washed once with ice-cold 1 mM Na3VO4 in PBS (100 μL/well, Invitrogen). The wash was then flicked off and ice-cold lysis buffer was added to the cells (50 μL/well). The plate was shaken for 20-30 min at 4° C. to completely lyse the cells. Sample diluent (50 μL/well) was added to the ELISA plate, and the lysate (50 μL) was diluted into the sample diluent in each well of the ELISA plate. Plates were sealed and incubated overnight at 4° C. with shaking. The next day, wells were washed four times with 1× Wash Buffer; plates were taped on lint-free paper after the final wash prior to adding Add Detection Antibody (green, 100 μL/well) to each well and incubating for 1 hr at 37° C. After incubation, wells were washed as described. HRP-Linked secondary antibody (red, 100 μL/well) was added to each well and incubated for 30 min at 37° C. After incubation, the wells were washed as described. TMB Substrate (100 μL/well) was added to each well and the plate incubated for 10 min at 37° C. or 30 min at rt maximum. Stop Solution (100 μL/well) was added to each well at the end of the incubation and plates were shaken gently for a few seconds. Absorbance was read at 450 nm within 30 min after addition of Stop Solution on a PerkinElmer EnVision Excite Multilabel Reader Method for Absorbance or on a Molecular Devices SpectraMax^384 Reader for absorbance. Data were analyzed using a four-parameter fit in Microsoft Excel.

EGFR L858R (NCI-H3255) = target: T2, EGFR L858R (NCI-H3255) (Homo sapiens, UniProt P00533, L858R); assay: pEGFR Y1068 ELISA assay, NCI-H3255 cells
T2 construct: detects endogenous levels of phospho-EGF Receptor (Tyr1068) protein; host or cells: NCI-H3255
Description: (§1) The PathScan® Phospho-EGF Receptor (Tyr1068) Sandwich ELISA Kit is a solid phase sandwich enzyme-linked immunosorbent assay (ELISA) that detects endogenous levels of phospho-EGF Receptor (Tyr1068) protein. […] NCI-H3255 cells were licensed from NCI. […] All cells were cultured according to ATCC recommendations. A549, NCI-H1975, PC9, and NCI-H3255 cells were grown in RPMI media (Invitrogen, Carlsbad, Calif.) supplemented with 10% FBS (Sigma, St Louis, Mo.), and with 1% Penn/Strep (Invitrogen).
(§2) Each compound was prepared as a DMSO stock solution (10 mM). Compounds were tested in duplicate on each plate, with an 11-point serial dilution curve (1:3 dilution). Compound treatment (50 μL) was added from the compound dilution plate to the cell plate. […] Plates were then incubated for 2 hr at 37° C., 5% CO2. […] The wash was then flicked off and ice-cold lysis buffer was added to the cells (50 μL/well). The plate was shaken for 20-30 min at 4° C. to completely lyse the cells. Sample diluent (50 μL/well) was added to the ELISA plate, and the lysate (50 μL) was diluted into the sample diluent in each well of the ELISA plate. Plates were sealed and incubated overnight at 4° C. with shaking. The next day, wells were washed four times with 1× Wash Buffer; plates were taped on lint-free paper after the final wash prior to adding Add Detection Antibody (green, 100 μL/well) to each well and incubating for 1 hr at 37° C. After incubation, wells were washed as described. HRP-Linked secondary antibody (red, 100 μL/well) was added to each well and incubated for 30 min at 37° C. After incubation, the wells were washed as described. TMB Substrate (100 μL/well) was added to each well and the plate incubated for 10 min at 37° C. or 30 min at rt maximum. Stop Solution (100 μL/well) was added to each well at the end of the incubation and plates were shaken gently for a few seconds. […] Data were analyzed using a four-parameter fit in Microsoft Excel.

EGFR del (PC9) = target: T3, EGFR del (PC9) (Homo sapiens, UniProt P00533, DEL746-750); assay: pEGFR Y1068 ELISA assay, PC9 cells; conditions: inhibition of phosphorylation of EGFR at Tyr1068; PC9 NSCLC cells; 2 hr compound incubation
T3 construct: detects endogenous levels of phospho-EGF Receptor (Tyr1068) protein; host or cells: PC9
Description: as §1, §2

[2] = target: T4, EGFR L858R+T790M, endogenous (NCI-H1975) (Homo sapiens, UniProt P00533, L858R/T790M); assay: pEGFR Y1068 ELISA assay, NCI-H1975 cells; conditions: inhibition of phosphorylation of EGFR at Tyr1068; NCI-H1975 NSCLC cells; 2 hr compound incubation
T4 construct: NCI-H1975 (EGFR L858R+T790M, endogenous); host or cells: NCI-H1975

EGFR del/T790M (PC9-DRH) = target: T5, EGFR del/T790M (PC9-DRH) (Homo sapiens, UniProt P00533, DEL746-750/T790M); assay: pEGFR Y1068 ELISA assay, PC9-DRH cells; conditions: inhibition of phosphorylation of EGFR at Tyr1068; PC9-DRH cells (dacomitinib resistant); 2 hr compound incubation
T5 construct: detects endogenous levels of phospho-EGF Receptor (Tyr1068) protein; endogenous in cells; host or cells: PC9-DRH (dacomitinib-resistant derivative of PC9, generated in house)
Description: as §1, §2

[3] = inhibition of phosphorylation of EGFR at Tyr1068, NCI-H3255 NSCLC cells, 2 hr compound incubation

T2 sequence (P00533 25-1210 L858R): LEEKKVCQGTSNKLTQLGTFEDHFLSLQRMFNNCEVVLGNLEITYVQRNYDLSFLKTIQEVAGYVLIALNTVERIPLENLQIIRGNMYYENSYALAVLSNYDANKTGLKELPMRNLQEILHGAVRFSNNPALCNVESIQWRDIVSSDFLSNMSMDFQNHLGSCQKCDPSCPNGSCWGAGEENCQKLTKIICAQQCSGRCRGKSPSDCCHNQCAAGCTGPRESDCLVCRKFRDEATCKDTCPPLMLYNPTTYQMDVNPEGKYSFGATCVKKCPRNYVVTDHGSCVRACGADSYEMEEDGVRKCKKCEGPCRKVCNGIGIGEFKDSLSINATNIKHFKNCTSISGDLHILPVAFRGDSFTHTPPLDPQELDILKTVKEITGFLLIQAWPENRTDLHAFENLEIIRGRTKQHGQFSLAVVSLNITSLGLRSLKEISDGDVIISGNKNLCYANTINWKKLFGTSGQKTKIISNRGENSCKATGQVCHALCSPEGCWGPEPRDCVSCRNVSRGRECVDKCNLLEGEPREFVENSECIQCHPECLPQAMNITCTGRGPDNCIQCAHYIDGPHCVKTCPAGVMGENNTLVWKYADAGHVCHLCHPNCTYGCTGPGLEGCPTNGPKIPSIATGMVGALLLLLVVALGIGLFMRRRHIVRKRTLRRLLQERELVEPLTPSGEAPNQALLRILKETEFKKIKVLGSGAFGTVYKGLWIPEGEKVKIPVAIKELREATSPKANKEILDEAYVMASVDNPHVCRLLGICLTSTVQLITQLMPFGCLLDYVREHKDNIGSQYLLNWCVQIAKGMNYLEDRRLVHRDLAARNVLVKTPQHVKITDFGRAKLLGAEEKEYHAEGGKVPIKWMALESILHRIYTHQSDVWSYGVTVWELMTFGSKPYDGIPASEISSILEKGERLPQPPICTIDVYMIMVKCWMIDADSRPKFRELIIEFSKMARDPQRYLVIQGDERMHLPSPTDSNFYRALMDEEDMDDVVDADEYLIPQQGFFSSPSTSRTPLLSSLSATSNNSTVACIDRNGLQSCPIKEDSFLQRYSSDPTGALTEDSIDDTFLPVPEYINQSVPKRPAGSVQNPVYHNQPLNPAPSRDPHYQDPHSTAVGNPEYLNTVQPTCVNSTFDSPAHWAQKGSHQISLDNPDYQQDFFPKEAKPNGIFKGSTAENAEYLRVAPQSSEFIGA
T3 sequence (P00533 with tags, fused parts or gaps DEL746-750): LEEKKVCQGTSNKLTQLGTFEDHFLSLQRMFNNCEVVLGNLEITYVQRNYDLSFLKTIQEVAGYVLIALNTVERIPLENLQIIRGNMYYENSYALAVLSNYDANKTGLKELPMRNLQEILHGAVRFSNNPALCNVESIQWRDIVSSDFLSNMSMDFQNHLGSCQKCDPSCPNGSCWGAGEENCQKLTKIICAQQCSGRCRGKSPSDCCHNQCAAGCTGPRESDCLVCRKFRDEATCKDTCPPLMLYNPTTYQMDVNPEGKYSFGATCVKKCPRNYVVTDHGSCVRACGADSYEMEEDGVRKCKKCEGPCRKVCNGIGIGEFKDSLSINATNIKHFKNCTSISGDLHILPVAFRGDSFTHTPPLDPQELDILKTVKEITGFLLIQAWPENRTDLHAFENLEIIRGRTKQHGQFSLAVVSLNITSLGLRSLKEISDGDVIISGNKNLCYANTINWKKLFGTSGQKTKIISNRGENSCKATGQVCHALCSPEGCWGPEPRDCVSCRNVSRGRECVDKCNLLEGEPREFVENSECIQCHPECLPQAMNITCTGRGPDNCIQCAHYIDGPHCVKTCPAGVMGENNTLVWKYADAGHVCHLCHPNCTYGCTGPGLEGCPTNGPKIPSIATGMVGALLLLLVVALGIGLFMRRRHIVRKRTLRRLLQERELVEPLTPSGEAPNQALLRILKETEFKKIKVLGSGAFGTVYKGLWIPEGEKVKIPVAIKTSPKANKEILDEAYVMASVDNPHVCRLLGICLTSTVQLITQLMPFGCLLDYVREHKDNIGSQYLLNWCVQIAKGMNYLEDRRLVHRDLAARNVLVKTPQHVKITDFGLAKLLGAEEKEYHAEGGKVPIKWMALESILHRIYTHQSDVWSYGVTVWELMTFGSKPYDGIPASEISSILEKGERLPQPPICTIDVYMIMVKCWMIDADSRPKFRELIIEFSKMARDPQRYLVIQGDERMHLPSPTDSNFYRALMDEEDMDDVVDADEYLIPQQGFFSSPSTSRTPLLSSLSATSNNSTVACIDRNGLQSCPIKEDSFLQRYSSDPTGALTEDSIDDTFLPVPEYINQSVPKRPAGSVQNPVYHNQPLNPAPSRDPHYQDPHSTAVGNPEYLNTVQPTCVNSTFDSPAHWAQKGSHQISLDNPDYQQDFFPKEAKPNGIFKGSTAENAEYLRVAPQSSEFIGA
T5 sequence (P00533 with tags, fused parts or gaps DEL746-750/T790M): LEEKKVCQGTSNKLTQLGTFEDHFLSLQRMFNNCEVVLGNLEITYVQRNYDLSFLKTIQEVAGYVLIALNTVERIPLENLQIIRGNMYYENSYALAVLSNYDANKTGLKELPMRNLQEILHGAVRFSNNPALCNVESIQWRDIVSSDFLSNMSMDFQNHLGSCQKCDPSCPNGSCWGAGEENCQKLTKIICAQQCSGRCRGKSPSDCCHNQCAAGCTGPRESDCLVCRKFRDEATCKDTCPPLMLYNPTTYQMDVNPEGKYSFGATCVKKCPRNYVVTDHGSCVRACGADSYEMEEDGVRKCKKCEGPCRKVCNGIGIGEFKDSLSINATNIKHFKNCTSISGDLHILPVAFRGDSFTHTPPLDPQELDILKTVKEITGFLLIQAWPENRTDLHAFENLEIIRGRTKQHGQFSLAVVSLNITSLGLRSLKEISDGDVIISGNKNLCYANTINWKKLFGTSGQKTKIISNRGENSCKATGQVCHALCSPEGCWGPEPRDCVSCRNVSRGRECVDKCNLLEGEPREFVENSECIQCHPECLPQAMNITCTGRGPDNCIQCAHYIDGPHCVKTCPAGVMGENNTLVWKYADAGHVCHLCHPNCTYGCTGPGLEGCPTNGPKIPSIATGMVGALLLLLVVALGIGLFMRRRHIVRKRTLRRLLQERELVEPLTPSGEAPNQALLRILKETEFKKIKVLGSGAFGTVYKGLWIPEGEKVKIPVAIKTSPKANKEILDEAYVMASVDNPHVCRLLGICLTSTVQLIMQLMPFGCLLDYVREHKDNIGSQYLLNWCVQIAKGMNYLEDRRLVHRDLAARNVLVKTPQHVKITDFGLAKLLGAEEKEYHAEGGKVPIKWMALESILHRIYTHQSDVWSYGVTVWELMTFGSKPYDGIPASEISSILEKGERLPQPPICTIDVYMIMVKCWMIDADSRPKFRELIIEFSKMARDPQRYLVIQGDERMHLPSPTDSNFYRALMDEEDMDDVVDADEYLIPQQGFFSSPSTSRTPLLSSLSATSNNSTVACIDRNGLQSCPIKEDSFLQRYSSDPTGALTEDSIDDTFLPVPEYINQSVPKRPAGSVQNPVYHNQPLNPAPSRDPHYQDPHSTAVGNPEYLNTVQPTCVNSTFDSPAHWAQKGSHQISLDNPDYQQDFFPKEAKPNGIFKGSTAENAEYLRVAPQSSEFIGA
T4 sequence (P00533 25-1210 T790M/L858R): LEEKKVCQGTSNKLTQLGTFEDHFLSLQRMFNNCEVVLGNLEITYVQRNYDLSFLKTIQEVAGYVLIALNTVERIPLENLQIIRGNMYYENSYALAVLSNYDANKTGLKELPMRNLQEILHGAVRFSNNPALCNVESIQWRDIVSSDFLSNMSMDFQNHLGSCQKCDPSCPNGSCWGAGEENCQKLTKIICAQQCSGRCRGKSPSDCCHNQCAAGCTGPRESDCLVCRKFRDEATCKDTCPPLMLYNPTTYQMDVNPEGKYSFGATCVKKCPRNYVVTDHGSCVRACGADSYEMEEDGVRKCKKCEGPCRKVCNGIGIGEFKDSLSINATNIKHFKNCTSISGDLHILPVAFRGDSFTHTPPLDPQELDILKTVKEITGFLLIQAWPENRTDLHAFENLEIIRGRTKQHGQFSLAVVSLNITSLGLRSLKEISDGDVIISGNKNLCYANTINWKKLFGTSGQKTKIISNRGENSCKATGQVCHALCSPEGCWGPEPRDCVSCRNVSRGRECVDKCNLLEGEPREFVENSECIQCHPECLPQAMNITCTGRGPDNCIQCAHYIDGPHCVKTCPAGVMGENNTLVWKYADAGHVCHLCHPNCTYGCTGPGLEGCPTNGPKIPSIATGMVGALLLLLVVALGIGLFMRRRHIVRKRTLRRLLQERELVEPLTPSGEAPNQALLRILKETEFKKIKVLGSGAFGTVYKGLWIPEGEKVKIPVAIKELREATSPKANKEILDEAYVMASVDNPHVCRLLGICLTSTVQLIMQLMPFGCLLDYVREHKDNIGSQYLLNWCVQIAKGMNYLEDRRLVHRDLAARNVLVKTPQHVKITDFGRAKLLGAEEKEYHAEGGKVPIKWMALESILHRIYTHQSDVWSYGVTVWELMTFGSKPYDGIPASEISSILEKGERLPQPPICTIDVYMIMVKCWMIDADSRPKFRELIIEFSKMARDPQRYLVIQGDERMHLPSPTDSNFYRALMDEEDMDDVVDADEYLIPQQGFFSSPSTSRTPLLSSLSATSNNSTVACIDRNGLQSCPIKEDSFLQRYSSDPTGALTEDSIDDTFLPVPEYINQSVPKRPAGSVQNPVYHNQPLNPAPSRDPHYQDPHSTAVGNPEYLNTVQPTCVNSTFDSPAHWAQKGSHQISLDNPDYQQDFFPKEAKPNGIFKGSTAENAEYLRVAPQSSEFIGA

SMILES | IC50 [1] [nM] | IC50 (EGFR L858R (NCI-H3255)) [nM] | IC50 (EGFR del (PC9)) [nM] | IC50 [2] [nM] | IC50 (EGFR del/T790M (PC9-DRH)) [nM] | IC50 (EGFR L858R (NCI-H3255); [3]) [nM]
C=CC(=O)N[C@@H]1CN(c2nc(Nc3cnn(C)c3)c3ncn(C(C)C)c3n2)C[C@@H]1OC (single isomer, unassigned) [Example 50, N-((cis*)-1-(9-isopropyl-6((1-methyl-1H-pyrazol-4-yl)amino)-9H-purin-2-yl)-4-methoxypyrrolidin-3-yl)acrylamide] | 587 | 3 | 8 | 26 | 34 | –
C=CC(=O)N[C@@H]1CN(c2nc(Nc3cnn(C)c3)c3ncn(C(C)(C)C)c3n2)CC1F (stereo in doubt) [Example 49, N-((3R,4S)-1-(9-(tert-butyl)-6-((1-methyl-1H-pyrazol-4-yl)amino)-9H-purin-2-yl)-4-fluoropyrrolidin-3-yl)acrylamide] | 787 | 3 | 8 | 21 | 2 | –
C=CC(=O)N[C@H]1CCN(c2nc(Nc3ccc(N4CCN(C)CC4)cc3)c3ncn(C(C)C)c3n2)C1 [Example 1, (S)-N-(1-(9-isopropyl-6-((4-(4-methylpiperazin-1-yl)phenyl)amino)-9H-purin-2-yl)pyrrolidin-3-yl)acrylamide] | 277 | 19 | 22 | 19 | 18 | –
C=CC(=O)N[C@H]1CCN(c2nc(Nc3cnn(C)c3)c3ncn(C(C)C)c3n2)C1 [Example 4, (S)-N-(1-(9-isopropyl-6-((1-methyl-1H-pyrazol-4-yl)amino)-9H-purin-2-yl)pyrrolidin-3-yl)acrylamide] | 652 | 59 | 52 | 52 | – | –
C=CC(=O)NC1(C)CN(c2nc(Nc3cnn(C)c3)c3ncn(C(C)C)c3n2)C1 [Example 13, N-(1-(9-isopropyl-6((1-methyl-1H-pyrazol-4-yl)amino)-9H-purin-2-yl)-3-methylazetidin-3-yl)acrylamide] | 2440 | 80 | 40 | 40 | 25 | –
C=CC(=O)N1C[C@@H]2CN(c3nc(Nc4ccc(N5CCN(C)CC5)cc4)c4ncn(C(C)C)c4n3)C[C@@H]2C1 [Example 21, 1-((cis)-5-(9-isopropyl-6-((4-(4-methylpiperazin-1-yl)phenyl)amino)-9H-purin-2-yl)hexahydropyrrolo[3,4-c]pyrrol-2(1H)-yl)prop-2-en-1-one] | 181 | – | 8 | 14 | 18 | 8
C=CC(=O)N(C)[C@H]1C[C@H](Oc2nc(Nc3ccc(N4CCN(C)CC4)cc3)c3ncn(C(C)C)c3n2)C1 [Example 29, N-((trans)-3-((9-isopropyl-6-((4-(4-methylpiperazin-1-yl)phenyl)amino)-9H-purin-2-yl)oxy)cyclobutyl)-N-methylacrylamide] | 698 | 35 | 40 | 35 | 61 | –
C=CC(=O)NC1(C)CN(c2nc(Nc3cnn(C4CCN(C)CC4)c3)c3ncn(C(C)C)c3n2)C1 [Example 39, N-(1-(9-isopropyl-6-((1-(1-methylpiperidin-4-yl)-1H-pyrazol-4-yl)amino)-9H-purin-2-yl)-3-methylazetidin-3-yl)acrylamide] | 2850 | – | 20 | 66 | 10 | –
C=CC(=O)N[C@H]1CCN(c2nc(Nc3cnn(C4CCN(C)CC4)c3)c3ncn(C(C)C)c3n2)C1 [Example 41, (S)-N-(1-(9-isopropyl-6-((1-(1-methylpiperidin-4-yl)-1H-pyrazol-4-yl)amino)-9H -purin-2-yl)pyrrolidin-3-yl)acrylamide] | 3040 | 9 | 38 | 64 | 3 | –
C=CC(=O)N[C@H]1CCN(c2nc(Nc3cnn(C4CCN(C)C4)c3)c3ncn(C(C)C)c3n2)C1 (stereo partly drawn) [Example 45, N-((3S)-1-(9-isopropyl-6-((1-(1-methylpyrrolidin-3-yl)-1H-pyrazol-4-yl)amino)-9H -purin-2-yl)pyrrolidin-3-yl)acrylamide] | 1910 | – | 7 | 26 | 3 | –
C=CC(=O)N[C@H]1CCN(c2nc(Nc3ccc(N4CCN(C)CC4)cc3)c3ncn(CCO)c3n2)C1 [Example 46, (S)-N-(1-(9-(2-hydroxyethyl)-6-((4-(4-methylpiperazin-1-yl)phenyl)amino)-9H -purin-2-yl)pyrrolidin-3-yl)acrylamide] | 4190 | – | 31 | 387 | – | 7
C=CC(=O)N[C@@H]1CN(c2nc(Nc3cn(C4CCN(C)C4)nc3C)c3ncn(C(C)C)c3n2)C[C@H]1F (stereo partly drawn) [Example 55, N-((3R,4R)-4-fluoro-1-(9-isopropyl-6-((3-methyl-1-(1-methylpyrrolidin-3-yl)-1H -pyrazol-4-yl)amino)-9H-purin-2-yl)pyrrolidin-3-yl)acrylamide] | 273 | 2 | 3 | 9 | 3 | –
C=CC(=O)N[C@@H]1CN(c2nc(Nc3cn(C)nc3C)c3ncn(C(C)C)c3n2)C[C@H]1F [Example 61, N-((3R,4R)-1-(6-((1,3-dimethyl-1H-pyrazol-4-yl)amino)-9-isopropyl-9H-purin-2-yl) -4-fluoropyrrolidin-3-yl)acrylamide] | ≥ 10000 | – | 6650 | 6140 | 2130 | –
C=CC(=O)N[C@@H]1CN(c2nc(Nc3ccc(N4CCN(C)CC4)cc3)c3ncn(C(C)C)c3n2)C[C@H]1OC [Example 62, N-((3R,4R)-1-(9-isopropyl-6-((4-(4-methylpiperazin-1-yl)phenyl)amino)-9H-purin-2-yl)-4-methoxypyrrolidin-3-yl)acrylamide] | – | 1 | 3 | 6 | – | –
C=CC(=O)N[C@@H]1CN(c2nc(Nc3cnn(C)c3)c3ncn(C(C)C)c3n2)C[C@H]1OC [Example 63, N-((3R,4R)-1-(9-isopropyl-6-((1-methyl-1H-pyrazol-4-yl)amino)-9H-purin-2-yl)-4-methoxypyrrolidin-3-yl)acrylamide] | 551 | – | 14 | 32 | 5 | –
C=CC(=O)N[C@@H]1CN(c2nc(Nc3cn(C4CCN(C)C4)nc3C)c3ncn(C(C)C)c3n2)C[C@H]1F (stereo partly drawn) [Example 65, N-((3R,4R)-4-fluoro-1-(9-isopropyl-6-((3-methyl-1-(1-methylpyrrolidin-3-yl)-1H -pyrazol-4-yl)amino)-9H-purin-2-yl)pyrrolidin-3-yl)acrylamide] | 1260 | – | 11 | 14 | 9 | –
C=CC(=O)N[C@@H]1CN(c2nc(Nc3cn(C4CCN(C)C4)nc3OC)c3ncn(CC)c3n2)C[C@H]1F (stereo partly drawn) [Example 75, N-((3R,4R)-1-(9-ethyl-6-((3-methoxy-1-(1-methylpyrrolidin-3-yl)-1H-pyrazol-4-yl)amino)-9H-purin-2-yl)-4-fluoropyrrolidin-3-yl)acrylamide] | 64 | 1 | – | 11 | 2 | –
C=CC(=O)N[C@@H]1CN(c2nc(Nc3cn(C4CCN(C)C4)nc3OC)c3ncn(C)c3n2)C[C@H]1F (stereo partly drawn) [Example 79, N-((3R,4R)-4-fluoro-1-(6-((3-methoxy-1-(1-methylpyrrolidin-3-yl)-1H-pyrazol-4-yl)amino)-9-methyl-9H-purin-2-yl)pyrrolidin-3-yl)acrylamide] | 100 | 3 | 3 | 6 | 1 | –
C=CC(=O)N[C@@H]1CN(c2nc(Nc3cn(C4CCN(C)C4)nc3C)c3ncn(C)c3n2)C[C@H]1F (stereo partly drawn) [Example 81, N-((3R,4R)-4-fluoro-1-(9-methyl-6-((3-methyl-1-(1-methylpyrrolidin-3-yl)-1H -pyrazol-4-yl)amino)-9H-purin-2-yl)pyrrolidin-3-yl)acrylamide] | 575 | 15 | 21 | 19 | 8 | –
C=CC(=O)N[C@@H]1CN(c2nc(Nc3cn(CC(C)O)nc3OC)c3ncn(C(C)C)c3n2)C[C@H]1F (stereo partly drawn) [Example 84, N-((3R,4R)-4-fluoro-1-(6-((1-(2-hydroxypropyl)-3-methoxy-1H-pyrazol-4-yl)amino)-9-isopropyl-9H-purin-2-yl)pyrrolidin-3-yl)acrylamide] | 1200 | 9 | 45 | 15 | 3 | –
C=CC(=O)N[C@@H]1CN(c2nc(Nc3cnn([C@@H]4CCN(C)C4)c3C)c3ncn(C(C)C)c3n2)C[C@H]1F [Example 85, N-((3R,4R)-4-fluoro-1-(9-isopropyl-6-((5-methyl-1-((R)-1-methylpyrrolidin-3-yl) -1H-pyrazol-4-yl)amino)-9H-purin-2-yl)pyrrolidin-3-yl)acrylamide] | 647 | 34 | 104 | 17 | 15 | –
